These results are taken from patent publication US9345703B2, “Kappa opioid receptor effectors and uses thereof” (University of Kansas, priority 2011, dated 2016).

The target in one assay is DOR (Homo sapiens, UniProt P41143). Kind of assay: High content imaging β-arrestin translocation assay, DOR antagonist (DOR HCS). Format: cell-based. From the text:
(§1) In this campaign, two assay platforms were employed to evaluate KOR activity and selectivity: the KOR1 DISCOVERX β-Arrestin […] assay and an imaging based β-arrestin translocation assay for confirmatory and selectivity assays. The KOR1 DISCOVERX β-Arrestin […] assay is a commercial platform for direct measurement of GPCR (G protein-coupled receptor) activation by detection of β-Arrestin binding to the KOR. […] In cells that stably express these fusion proteins, ligand stimulation results in the recruitment of β-Arrestin by the GPCR. This interaction encourages the complementation of the two β-galactosidase fragments resulting in the formation of a functional enzyme that converts substrate in the assay medium to a detectable signal. The imaging based high-content β-arrestin translocation assay is based upon the redistribution of β-Arrestin linked to green fluorescent protein (GFP) to the cell surface and detection (Barak, et al. (1997) J. Biol. Chem. 272:27497-27500).
(§2) Initially, a portion (approximately 290,000 compounds) of the MLSMR compound collection was tested in the KOR1 DISCOVERX β-arrestin primary kappa opioid (KOP) agonist and antagonist screens (PUBCHEM AID 1777 and 1778, respectively) at a single concentration point (10 μM). […] These compounds were concurrently tested in a β-galactosidase counterscreen assay (PUBCHEM AID 1966) to assess the possibility that these compounds might inhibit the reporting enzyme. […] The KOR:DOR:MOR selectivity of the compounds was determined using the analogous β-arrestin translocation assays for the DOR (PUBCHEM AID 2370 and 2357, for agonists and antagonist, respectively) and the MOR (PUBCHEM AID 2352 and 2420, for agonists and antagonists, respectively).

Assay [1] addresses T1, KOR (Homo sapiens, UniProt P41145). Kind of assay: High content imaging β-arrestin translocation assay, KOR antagonist (KOR HCS). Format: cell-based. The following applies: antagonist; average; read-out: Potency, Target KOR HCS.
Description: as §1, §2

Assay [2] addresses T1, KOR. Kind of assay: KOR1 DISCOVERX β-Arrestin […] assay, antagonist mode (KOR DRX). Format: cell-based. As to conditions: antagonist; average; read-out: Potency, Target KOR DRX.
Description: as §1, §2

Assay [3] has as its target T2, KOP receptor (Homo sapiens, UniProt P41145). Briefly: ERK 1/2 activation, inhibition. Format: cell-based.
Assay [4] deals with T2, KOP receptor. Kind of assay: 35S-GTPγS coupling, inhibition. Format: biochemical. On the technique in general: GTPγS resists hydrolysis and so accumulates on activated G proteins.
Assay [5] has as its target T3, MOR (Homo sapiens, UniProt P35372). Kind of assay: High content imaging β-arrestin translocation assay, MOR antagonist (MOR HCS). Format: cell-based.
Description: as §1, §2

Assay [6] addresses T1, KOR. Kind of assay: DISCOVERX β-arrestin […] assay, agonist mode (KOR DRx). Format: cell-based. The following applies: agonist; n = 3; read-out: Average Potency KOR DRx.
Assay [7] addresses T1, KOR. Kind of assay: Binding affinity Ki of Table 9.
Assay [8] addresses T1, KOR. Kind of assay: High content imaging based β-arrestin translocation assay, KOR agonist (KOR HCS). Format: cell-based. As to conditions: n = 2, read-out: Average Potency KOR HCS.
The target in assay [9] is T3, MOR. Briefly: High content imaging based β-arrestin translocation assay, MOR agonist (MOR HCS). The following applies: n = 2, read-out: Average Potency MOR HCS. Format: cell-based.

Marks after values point to notes of the source that are not given here. Some results are limits rather than exact numbers.

T1 sequence (P41145 whole entry): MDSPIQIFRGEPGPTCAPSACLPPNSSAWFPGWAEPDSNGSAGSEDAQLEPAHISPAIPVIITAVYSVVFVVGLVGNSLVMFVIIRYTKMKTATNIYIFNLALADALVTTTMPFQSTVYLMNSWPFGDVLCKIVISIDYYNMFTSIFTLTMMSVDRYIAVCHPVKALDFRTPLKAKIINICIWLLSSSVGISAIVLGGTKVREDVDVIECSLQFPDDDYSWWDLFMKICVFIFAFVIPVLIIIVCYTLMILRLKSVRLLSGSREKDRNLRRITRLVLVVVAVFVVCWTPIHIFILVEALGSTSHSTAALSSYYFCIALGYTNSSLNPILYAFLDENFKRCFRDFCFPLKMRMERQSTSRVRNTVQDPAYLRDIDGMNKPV
T2 sequence (P41145 whole entry): as above
T3 sequence (P35372 whole entry): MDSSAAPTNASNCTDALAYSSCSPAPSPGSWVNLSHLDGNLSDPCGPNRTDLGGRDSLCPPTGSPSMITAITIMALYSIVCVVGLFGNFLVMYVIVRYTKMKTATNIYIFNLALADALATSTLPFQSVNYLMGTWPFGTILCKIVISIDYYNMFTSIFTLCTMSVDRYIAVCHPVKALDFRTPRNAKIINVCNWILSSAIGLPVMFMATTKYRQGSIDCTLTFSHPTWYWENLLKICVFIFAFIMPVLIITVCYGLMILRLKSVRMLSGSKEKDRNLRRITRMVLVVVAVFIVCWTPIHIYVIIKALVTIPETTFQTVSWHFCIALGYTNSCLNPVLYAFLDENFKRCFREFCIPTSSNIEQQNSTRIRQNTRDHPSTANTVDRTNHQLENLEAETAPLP
Chain of DOR (P41143 whole entry, the tested form may be a part): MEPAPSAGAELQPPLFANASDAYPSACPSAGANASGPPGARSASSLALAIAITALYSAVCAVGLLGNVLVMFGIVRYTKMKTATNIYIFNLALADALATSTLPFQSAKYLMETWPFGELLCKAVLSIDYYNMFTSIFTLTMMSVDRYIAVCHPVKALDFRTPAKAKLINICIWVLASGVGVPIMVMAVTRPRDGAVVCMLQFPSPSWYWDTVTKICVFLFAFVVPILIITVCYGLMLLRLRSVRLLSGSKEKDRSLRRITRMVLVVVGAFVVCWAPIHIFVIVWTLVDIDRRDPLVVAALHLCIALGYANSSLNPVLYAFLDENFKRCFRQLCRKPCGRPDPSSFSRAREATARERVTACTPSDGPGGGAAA

Take `COc1ccc(N2CCN(CCCNC(=O)Cn3c(=O)c4cccn4c4ccccc43)CC2)cc1` [Compound 1{1}]: the IC50 was above 32 µM against DOR; 1.31 µM at KOR [1]; 1.97 µM at KOR [2]; 0.065 ± 0.0092 µM at KOP receptor [3] (n ≧ 3 curves, replicates of 6); 0.0957 ± 0.048 µM on KOP receptor [4] (n ≧ 3 curves in duplicate); above 32 µM against MOR [5]. Further, the “Imax (% NBNI)” value on KOP receptor [3] is 101 ± 3^ % NBNI; at KOP receptor [4] it was 122 ± 5^a % NBNI.
By Ki is commonly meant a measure of affinity in units of concentration, obtained from inhibition or displacement. On to `Fc1cccc(F)c1CSc1nnc(-c2ccccn2)n1Cc1cccs1` [Compound 2{42}], for which the results for the EC50 on KOR [6], at KOR [8] and on MOR [9] were above 19 µM, 20.9 µM and above 32 µM, respectively. Further, the Ki on KOR [7] amounted to 0.078 µM.
Taken in the same sequence, the figures for `Clc1ccccc1CSc1nnc(-c2ccccn2)n1Cc1ccco1` [Compound 2{47}] were 9.07 µM, 11.6 µM, above 32 µM and 0.106 µM.
